According to article PMC6194148, “Phenylindanes in Brewed Coffee Inhibit Amyloid-Beta and Tau Aggregation” (Frontiers in Neuroscience, 2018):
Where two headings read alike, the source gives them in different places. One block for each compound: values may come before it.

How the values were obtained:
Type in all cases: biochemical
amyloid-beta (Aβ) [1] = biological target: T1, amyloid-beta (Aβ) (Homo sapiens, UniProt P05067); assay: Aβ oligomerization ELISA (biotinylated Aβ[…]-42); also ThT fibrillization, […] inhibition at […]; parameters: gene APP; biotinylated Aβ1-42 (oligomerization); Aβ1-40 (fibrillization)
Target sequence in this assay (P05067 672-713): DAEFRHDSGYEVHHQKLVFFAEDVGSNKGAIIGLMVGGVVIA

tau (tau40) = biological target: T2, tau (tau40) (Homo sapiens, UniProt P10636); assay: ThS fluorescence fibrillization assay (heparin-containing buffer); […] inhibition at […], […] at […]; settings: read-out: Tau fibril inhibition (%)
T2 construct: gene MAPT; Human tau40, tag-free, expressed in E. coli
T2 sequence (P10636 2-441 isoform P10636-8): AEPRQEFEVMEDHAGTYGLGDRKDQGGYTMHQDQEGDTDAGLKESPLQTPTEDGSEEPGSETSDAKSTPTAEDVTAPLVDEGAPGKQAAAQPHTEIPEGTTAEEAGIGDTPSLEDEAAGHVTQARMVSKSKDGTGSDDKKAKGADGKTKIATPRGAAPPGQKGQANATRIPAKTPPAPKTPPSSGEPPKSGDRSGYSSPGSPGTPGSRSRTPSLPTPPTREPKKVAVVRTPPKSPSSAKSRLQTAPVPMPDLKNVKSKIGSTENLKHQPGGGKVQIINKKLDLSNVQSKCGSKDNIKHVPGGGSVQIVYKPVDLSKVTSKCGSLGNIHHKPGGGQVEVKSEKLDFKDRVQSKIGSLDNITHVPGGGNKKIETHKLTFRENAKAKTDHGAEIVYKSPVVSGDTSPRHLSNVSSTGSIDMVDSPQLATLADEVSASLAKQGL

amyloid-beta (Aβ) [2] = biological target: T1, amyloid-beta (Aβ); assay: ThT fluorescence fibrillization assay at […]; no inhibition of Aβ oligomerization; parameters: gene APP; Aβ1-40; settings: read-out: Aβ fibril inhibition (%)
Target sequence in this assay (P05067 672-711): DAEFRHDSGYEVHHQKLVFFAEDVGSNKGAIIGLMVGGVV

amyloid-beta (Aβ) [3] = biological target: T1, amyloid-beta (Aβ); assay: Aβ oligomerization ELISA (biotinylated Aβ[…]-42); also ThT fibrillization, […] inhibition at […]; parameters: gene APP; biotinylated Aβ1-42 (oligomerization); Aβ1-40 (fibrillization); remark: listed apart in the source
Target sequence in this assay (P05067 672-713): as the sequence (P05067 672-713) above

- IC50 (amyloid-beta (Aβ) [1]): 42.1 ± 1.4 µM
- inhibition at 100 µM (tau (tau40)): 95.2 ± 1.7%
Compound: CC1CC(c2ccc(O)c(O)c2)c2cc(O)c(O)cc21 (mixture of isomers) [compound 6, Phenylindane]

- inhibition at 100 µM (amyloid-beta (Aβ) [2]): 97.7 ± 0.7%
Compound: O=C(/C=C/c1ccc(O)c(O)c1)O[C@@H]1C[C@](O)(C(=O)O)C[C@@H](O)[C@H]1O [compound 2, Chlorogenic acid]

- inhibition at 100 µM (amyloid-beta (Aβ) [2]): 99.4 ± 0.9%
Compound: O=C(O)/C=C/c1ccc(O)c(O)c1 [compound 4, Caffeic acid]

Compound: O=c1c(O)c(-c2ccc(O)c(O)c2)oc2cc(O)cc(O)c12 [compound 5, Quercetin]
- IC50 (amyloid-beta (Aβ) [3]): 10.3 ± 1.1 µM
